The test concerns the target T1, D(4) dopamine receptor (Homo sapiens, UniProt P21917).
T1 sequence (P21917 whole entry): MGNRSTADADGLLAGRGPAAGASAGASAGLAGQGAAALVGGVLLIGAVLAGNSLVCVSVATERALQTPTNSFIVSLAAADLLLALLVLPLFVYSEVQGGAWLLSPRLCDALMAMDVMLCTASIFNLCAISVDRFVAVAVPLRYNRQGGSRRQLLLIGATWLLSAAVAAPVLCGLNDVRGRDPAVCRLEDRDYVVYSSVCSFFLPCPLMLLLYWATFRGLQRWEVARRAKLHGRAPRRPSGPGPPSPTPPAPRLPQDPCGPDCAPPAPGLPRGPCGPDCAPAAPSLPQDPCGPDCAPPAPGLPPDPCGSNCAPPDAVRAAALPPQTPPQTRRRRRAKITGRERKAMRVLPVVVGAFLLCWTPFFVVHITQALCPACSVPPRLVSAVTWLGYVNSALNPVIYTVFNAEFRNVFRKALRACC
Kind of test: Agonist activity at human D4.4 receptor in HEK293 cells coexpressing G-alpha-qo5 by FLIPR.

`c1ccc(N2CCN(Cc3nc4ccccc4[nH]3)CC2)nc1` [2-((4-(pyridin-2-yl)piperazin-1-yl)methyl)-1H-benzo[d]imidazole] yielded an EC50 of 12 nM.

As usually defined, the EC50 is the concentration at which the effect is half-maximal. A low value points to greater potency.

The record behind these values is BindingDB's records for doi:10.1021/jm060662k (Abbott Laboratories, 2006).
